The text below walks through data of patent US10933079B2, “Oligonucleotide analogues incorporating 5-aza-cytosine therein” (Astex Pharmaceuticals, Inc., priority 2005, dated 2021).

For data set [1] the following is noted: cited from earlier work.
Data set [2] has as its system CMV-EE210 cell line containing the epigenetically silenced GFP transgene (CMV promoter). Kind of data set: cell-based GFP assay for DNA methylation (reactivation of silenced GFP transgene). The procedure:
The demethylating activity of DpG and GpD di-, tri-, and tetranucleotides were tested in a cell-based GFP (green fluorescent protein) assay. This assay, which is schematically illustrated in FIG. 25, has a GFP gene regulated by the CMV promoter and is sensitive to the methylation of CpG sites within the promoter. A decrease in methylation resulting from exposure to a methylation inhibitor leads to GFP expression and is readily scored. Specifically, the CMV-EE210 cell line containing the epigenetically silenced GFP transgene was used to assay for reactivation of GFP expression by flow cytometry. CMV-EE210 was made by transfecting NIH 3T3 cells with the pTR-UF/UF1/UF2 plasmid (Zolotuhin et al., 1996), which is comprised of pBS(+) (Stratagene, Inc.) containing a cytomegalovirus (CMV) promoter driving a humanized GFP gene adapted for expression in mammalian cells. After transfection, high-level GFP expressing cells were initially selected by FACS analysis and sorting using a MoFlo cytometer (Cytomation, Inc.). Decitabine, potent inhibitor of mammalian DNMT1, was used as a positive control. […] Wells were scored g1 positive if (10%) of viable cells express GFP, g2 positive if 30% of viable cells express GFP and g3 if >75% of the viable cells express GFP. […]

What is called pIC50 is −log10 of the IC50, conventionally taken in molar units. The low end stands for a high IC50, the high end for a low IC50.

The structures appear in SMILES notation. pIC50: −log10 of the molar value.

With `Nc1ncn([C@H]2C[C@H](O)[C@@H](CO)O2)c(=O)n1` [Decitabine, 5-aza-2′-deoxycytidine], in data set [1] (humans), the total urinary excretion entry is on record as “less than 1 % of the administered dose”. For the same molecule, the “penetration into the cerebrospinal fluid” value in data set [1] (man, end of a 36-hour intravenous infusion) was 14-21 % of the plasma concentration. Moreover, the “GFP Expression Level” value in data set [2] (CMV-EE210 cells, three days, decitabine at 1 μM, test compound at 30-50 μM, fluorescent microscope scoring) is reported as “g3 (g3 if >75% of the viable cells express GFP)”. In addition, the pIC50 in data set [2] (GFP 50: dose at which the GFP expression level goes from g3 to g1/2, preliminary screening) was 6.30.
